# Experimental data reported in patent publication US12320798B2, “Diagnostic methods, therapeutic agents and uses thereof” (Metabolon, Inc., priority 2015, dated 2025).
# Experiment: 12 week lifestyle plus metformin intervention in IFG subjects
# Type: in vivo, human
# Conditions: 12 weeks lifestyle + metformin 2 g/day, 33 IFG subjects
# Description: 33 subjects with IFG underwent a 12 week intervention including both lifestyle (diet and exercise) changes and drug (metformin, dose: 2 g/day) therapy. At baseline, this study was 49% female with a mean age of 54 and mean BMI of 30.9.
smiles,measurement,value
CN(C)C(=N)N=C(N)N [metformin],"% Decrease from baseline, 2hPG",13.0%
same,"% Decrease from baseline, FPG",9.4%
same,"% Decrease from baseline, Weight",6.8%
